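How tested: cells in 96-well plates exposed to compound for 48 hours at five concentrations. Here, GI50 denotes the concentration required for 50% inhibition of growth.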 The source made the active and inactive calls. Rule as the data show it: active = GI50 up to about 1.1 µM and inactive = higher.
What was measured:
Test in all cases: NCI tumour cell line growth inhibition, 48 h
[1] = system: OVCAR-3
[2] = system: LOX IMVI
[3] = system: HT-29
[4] = system: 786-0
[5] = system: SK-MEL-5
[6] = system: Hs-578T
[7] = system: U-251
[8] = system: DU-145
[9] = system: HCT-15
[10] = system: A498
[11] = system: MDA-MB-231
[12] = system: IGROV-1
[13] = system: K562
[14] = system: CAKI-1
[15] = system: NCI-H23
[16] = system: HCT-116
[17] = system: PC-3
[18] = system: SK-MEL-2
[19] = system: KM12
[20] = system: HCC 2998

SMILES | GI50 [1] | GI50 [2] | GI50 [3] | GI50 [4] | GI50 [5] | GI50 [6] | GI50 [7] | GI50 [8] | GI50 [9] [µM] | GI50 [10] | GI50 [11] | GI50 [12] | GI50 [13] | GI50 [14] | GI50 [15] | GI50 [16] | GI50 [17] | GI50 [18] | GI50 [19] | GI50 [20]
CN(C)/C=N\c1cccc2cnccc12 | 43.2 µM (inactive) | > 100 µM (inactive) | > 100 µM (inactive) | > 100 µM (inactive) | > 100 µM (inactive) | > 100 µM (inactive) | > 100 µM (inactive) | > 100 µM (inactive) | > 100 | > 100 µM (inactive) | > 100 µM (inactive) | > 100 µM (inactive) | > 100 µM (inactive) | > 100 µM (inactive) | > 100 µM (inactive) | > 100 µM (inactive) | > 100 µM (inactive) | > 100 µM (inactive) | – | –
COC(=O)C1CC2CC(=NNC(N)=O)CC2C1 (configuration not stated) | > 100 µM (inactive) | > 100 µM (inactive) | > 100 µM (inactive) | > 100 µM (inactive) | > 100 µM (inactive) | – | > 100 µM (inactive) | – | > 100 | > 100 µM (inactive) | – | > 100 µM (inactive) | > 100 µM (inactive) | > 100 µM (inactive) | > 100 µM (inactive) | > 100 µM (inactive) | – | > 100 µM (inactive) | > 100 µM (inactive) | > 100 µM (inactive)
CCOC(=O)c1ccc(Nc2nc3ccc(C(F)(F)F)cc3nc2-c2ccccc2)cc1 | > 100 µM (inactive) | > 100 µM (inactive) | 67.9 µM (inactive) | > 100 µM (inactive) | > 100 µM (inactive) | 60.5 µM (inactive) | 53 µM (inactive) | > 100 µM (inactive) | 15.4 | – | – | 71.9 µM (inactive) | > 100 µM (inactive) | > 100 µM (inactive) | > 100 µM (inactive) | 84.9 µM (inactive) | 38 µM (inactive) | – | > 100 µM (inactive) | 84.1 µM (inactive)
CSc1[nH]cnc1C(N)=S | > 100 µM (inactive) | > 100 µM (inactive) | > 100 µM (inactive) | > 100 µM (inactive) | > 100 µM (inactive) | > 100 µM (inactive) | > 100 µM (inactive) | > 100 µM (inactive) | – | > 100 µM (inactive) | > 100 µM (inactive) | > 100 µM (inactive) | – | > 100 µM (inactive) | > 100 µM (inactive) | > 100 µM (inactive) | > 100 µM (inactive) | > 100 µM (inactive) | > 100 µM (inactive) | –
COc1ccc(C2OCCN2C)cc1 (configuration not stated) | > 100 µM (inactive) | 58.2 µM (inactive) | > 100 µM (inactive) | > 100 µM (inactive) | > 100 µM (inactive) | > 100 µM (inactive) | > 100 µM (inactive) | – | > 100 | > 100 µM (inactive) | > 100 µM (inactive) | > 100 µM (inactive) | > 100 µM (inactive) | > 100 µM (inactive) | > 100 µM (inactive) | > 100 µM (inactive) | > 100 µM (inactive) | > 100 µM (inactive) | > 100 µM (inactive) | –
CC1=C/C(=N\O)C(C(O)(C(F)(F)F)C(F)(F)F)C(C)(C)C1 (configuration not stated) | > 10 µM (inactive) | > 10 µM (inactive) | > 10 µM (inactive) | > 10 µM (inactive) | > 10 µM (inactive) | > 10 µM (inactive) | > 10 µM (inactive) | > 10 µM (inactive) | > 10 | > 10 µM (inactive) | > 10 µM (inactive) | > 10 µM (inactive) | > 10 µM (inactive) | > 10 µM (inactive) | > 10 µM (inactive) | > 10 µM (inactive) | > 10 µM (inactive) | – | > 10 µM (inactive) | > 10 µM (inactive)
Cc1ccc(NC(=O)c2cc(S(=O)(=O)N3CCNNC3=O)c(S)cc2Cl)cc1 | > 100 µM (inactive) | > 100 µM (inactive) | – | > 100 µM (inactive) | > 100 µM (inactive) | > 100 µM (inactive) | > 100 µM (inactive) | > 100 µM (inactive) | > 100 | – | > 100 µM (inactive) | > 100 µM (inactive) | 56.5 µM (inactive) | > 100 µM (inactive) | – | > 100 µM (inactive) | > 100 µM (inactive) | > 100 µM (inactive) | > 100 µM (inactive) | > 100 µM (inactive)
Cc1cc2c(cc1Cl)S(=O)(=O)OC(c1ccc([N+](=O)[O-])cc1)=N2 | > 100 µM (inactive) | > 100 µM (inactive) | > 100 µM (inactive) | > 100 µM (inactive) | > 100 µM (inactive) | > 100 µM (inactive) | > 100 µM (inactive) | > 100 µM (inactive) | > 100 | > 100 µM (inactive) | > 100 µM (inactive) | > 100 µM (inactive) | 91 µM (inactive) | > 100 µM (inactive) | – | > 100 µM (inactive) | > 100 µM (inactive) | – | > 100 µM (inactive) | > 100 µM (inactive)
COc1cc2c(cc1OCCCCN1C(=O)c3cccc4cccc(c34)C1=O)N=C[C@@H]1CCCN1C2=O | 3.4 µM (inactive) | 3.83 µM (inactive) | 5.73 µM (inactive) | 2.64 µM (inactive) | 2.01 µM (inactive) | – | 3.24 µM (inactive) | 4.01 µM (inactive) | 3.99 | 7.66 µM (inactive) | 3.53 µM (inactive) | 2.07 µM (inactive) | 4.15 µM (inactive) | 2.58 µM (inactive) | 3.74 µM (inactive) | 3.59 µM (inactive) | 5.27 µM (inactive) | 3.47 µM (inactive) | 3.57 µM (inactive) | 6.97 µM (inactive)
Nc1cc(N2CCCC2)nc(=O)n1-c1ccccc1 | – | > 100 µM (inactive) | > 100 µM (inactive) | > 100 µM (inactive) | > 100 µM (inactive) | – | > 100 µM (inactive) | > 100 µM (inactive) | > 100 | – | > 100 µM (inactive) | > 100 µM (inactive) | > 100 µM (inactive) | > 100 µM (inactive) | > 100 µM (inactive) | > 100 µM (inactive) | > 100 µM (inactive) | > 100 µM (inactive) | > 100 µM (inactive) | 20.7 µM (inactive)
COc1ccc(CNC(=O)NCn2cc(-c3ccccc3)nn2)cc1 | – | > 100 µM (inactive) | > 100 µM (inactive) | > 100 µM (inactive) | > 100 µM (inactive) | – | > 100 µM (inactive) | > 100 µM (inactive) | > 100 | – | > 100 µM (inactive) | > 100 µM (inactive) | > 100 µM (inactive) | > 100 µM (inactive) | > 100 µM (inactive) | > 100 µM (inactive) | > 100 µM (inactive) | > 100 µM (inactive) | > 100 µM (inactive) | 14.1 µM (inactive)
Nc1ncnc2c1ncn2C1OC(COC2C(CO)OC(OC(C(=O)O)C(O)C(OP(=O)(O)O)C(O)C(=O)O)C(O)C2O)C(O)C1O (configuration not stated) | > 100 µM (inactive) | > 100 µM (inactive) | > 100 µM (inactive) | > 100 µM (inactive) | > 100 µM (inactive) | 14.9 µM (inactive) | > 100 µM (inactive) | – | > 100 | > 100 µM (inactive) | > 100 µM (inactive) | > 100 µM (inactive) | > 100 µM (inactive) | > 100 µM (inactive) | > 100 µM (inactive) | > 100 µM (inactive) | > 100 µM (inactive) | > 100 µM (inactive) | > 100 µM (inactive) | > 100 µM (inactive)
COC(=O)[C@@H]1[C@H](O)CCC2=C(CC(=O)c3ccoc3)[C@H](C)CC[C@]21C | 26.2 µM (inactive) | 27.5 µM (inactive) | 44.3 µM (inactive) | > 50 µM (inactive) | 18.1 µM (inactive) | > 50 µM (inactive) | 41.2 µM (inactive) | – | 46.1 | > 50 µM (inactive) | > 50 µM (inactive) | > 50 µM (inactive) | 16.8 µM (inactive) | > 50 µM (inactive) | 30.3 µM (inactive) | 22.6 µM (inactive) | 23.4 µM (inactive) | > 50 µM (inactive) | 36.1 µM (inactive) | > 50 µM (inactive)
CC1CC(=O)Nc2ccccc2N1C(=O)CN1CCC(CCCCN(C)C)CC1 (configuration not stated) | > 100 µM (inactive) | > 100 µM (inactive) | > 100 µM (inactive) | > 100 µM (inactive) | > 100 µM (inactive) | – | > 100 µM (inactive) | – | > 100 | > 100 µM (inactive) | – | > 100 µM (inactive) | > 100 µM (inactive) | > 100 µM (inactive) | > 100 µM (inactive) | > 100 µM (inactive) | – | > 100 µM (inactive) | > 100 µM (inactive) | > 100 µM (inactive)
CN1C(=O)C(=Cc2ccc(Br)cc2)C(=O)N(C)C1=O | > 100 µM (inactive) | > 100 µM (inactive) | – | > 100 µM (inactive) | > 100 µM (inactive) | – | > 100 µM (inactive) | > 100 µM (inactive) | > 100 | > 100 µM (inactive) | > 100 µM (inactive) | – | 5.45 µM (inactive) | > 100 µM (inactive) | > 100 µM (inactive) | > 100 µM (inactive) | > 100 µM (inactive) | > 100 µM (inactive) | > 100 µM (inactive) | > 100 µM (inactive)
CC1(C)[N+]([O-])=[N+]([O-])C1(C)Br (configuration not stated) | > 100 µM (inactive) | > 100 µM (inactive) | > 100 µM (inactive) | > 100 µM (inactive) | > 100 µM (inactive) | > 100 µM (inactive) | > 100 µM (inactive) | – | > 100 | – | > 100 µM (inactive) | > 100 µM (inactive) | > 100 µM (inactive) | > 100 µM (inactive) | > 100 µM (inactive) | > 100 µM (inactive) | > 100 µM (inactive) | > 100 µM (inactive) | > 100 µM (inactive) | > 100 µM (inactive)

Reference: ChEMBL document CHEMBL1201862, “PubChem BioAssay data set” (2004)
